Where “and” joins values, the source holds several entries; their conditions need not be identical. Equal values may be shown once. One block for each compound: values may come before it. Where no end group is shown, it is not given here. [ ]: non-standard residue; d: D form. d2Nal = N[C@H](Cc1ccc2ccccc2c1)C(=O)O
Columns and labels:
[1] = target: T1, Ghrelin/GHRP/GHS Receptor (Rattus norvegicus, UniProt O08725); assay: In vitro cell culture method: GH release from cell culture of pituitary cells, peptide alone or plus stimulator; type: cell-based; design: from cell culture of pituitary cells; endogenous in cells; host or cells: dispersed primary rat anterior pituitary cells, 4 days in culture; details: for GH release, first line of entry (mark P + S): stimulator 1 ng/ml; for Unstimulated Basal GH release: Table 8
Protocol: (§1) The peptides were synthesized by the solid phase method and purified by HPLC. GH was determined by Radioimmunoassay (RIA).
In vitro GH Release-Female rats of the CD-1 strain were housed in a constant temperature room at 24° C. with 14 h light and 10 h darkness. The rats were fed Purina Rat chow and water at libitum. All studies were started between 0800-1000 hours. Pituitaries of mature female Sprague Dawley rats were rapidly removed after decapitation, neurointermediate lobe discarded and then placed in a pH 7.4 buffer. The pituitaries were cut into ˜3-mm pieces and then transferred to a flask containing HEPS buffer with trypsin and incubated at 37° C. Cells were triturated several times during this period. After dispersion, the cells were collected by centrifugation, wash with DMEM and placed into culture well. Cell cultures were maintained for 4 days at 37° with 8% CO2 added to the incubator atmosphere. After 4 days in culture, cells were washed with lactated Ringer's solution adjusted to pH 7.2-7.4 and then vehicle, peptide alone or peptide plus stimulator was added to media. Incubation time was 60-120 minutes after which media was removed from each well for GH determination. The GH RIA reagents were distributed by the NIH. Control data was collected from cell cultures treated with only the corresponding vehicle in the absence of peptide or stimulator. Control stimulated data was collected from cell cultures treated with stimulator alone in the absence of any peptide.

[2] = target: T1, Ghrelin/GHRP/GHS Receptor; assay: In vivo assay of GH release in rat, i.v. peptide alone or plus stimulator, serum GH by RIA
Protocol: as §1
For the in vivo assay of GH Release in rat, immature female Sprague Dawley rats were obtained from Charles River from Wilmington, Mass. After arrival they were housed at 25° C. with a 14:10 h light:dark cycle. Water and Purina rat chow were available at libitum. Pups were weaned at 21 days of age.
Immature twenty six day old female Sprague Dawley rats, 3-6 rats per treatment dose, were pretreated with pentobarbital 20 minutes before iv injection of vehicle/peptide or peptide plus stimulator. Injection was made as a 0.1 ml solution. For the non-pentobarbital treated rat assay, peptides were administered iv into the tail vein of conscious rats. All animals were sacrificed by guillotine after iv peptide or vehicle. Trunk blood was collected at +10-15 minutes […], allowed to clot, centrifuged and serum stored until assayed for GH levels by RIA. The GH RIA reagents were distributed by the NIH. Control data was collected from rats treated with only the corresponding vehicle in the absence of peptide or stimulator. Control stimulated data was collected from rats treated with stimulator alone in the absence of any peptide.

T1 sequence (O08725 whole entry): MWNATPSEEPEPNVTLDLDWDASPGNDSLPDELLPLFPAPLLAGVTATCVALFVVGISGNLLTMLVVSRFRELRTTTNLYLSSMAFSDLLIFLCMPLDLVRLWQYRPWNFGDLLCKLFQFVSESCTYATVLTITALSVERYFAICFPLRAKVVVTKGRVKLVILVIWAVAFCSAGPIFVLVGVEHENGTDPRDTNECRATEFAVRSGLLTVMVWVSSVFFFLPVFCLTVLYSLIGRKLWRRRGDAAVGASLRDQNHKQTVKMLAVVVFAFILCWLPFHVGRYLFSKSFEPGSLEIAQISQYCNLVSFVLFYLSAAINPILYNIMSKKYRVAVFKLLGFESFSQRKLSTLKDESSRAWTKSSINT

Compound: C=C(C)CON=C(c1ccccc1)c1ccccc1 [O-(2-methylallyl) benzophonone oxime, O-(2-methylallyl)benzophenone oxime]
GH release, second line of entry (no mark) ([1]; Table 10, 10 μg/ml): 1281 ± 58 ng/mL
GH release, first line of entry (mark P + S) ([1]; Table 10, 10 μg/ml): 929 ± 28 ng/mL
GH release, second line of entry (no mark) ([1]; Table 10, 30 μg/ml): 699 ± 53 ng/mL
GH release, first line of entry (mark P + S) ([1]; Table 10, 30 μg/ml): 616 ± 23 ng/mL

GH release, second line of entry (no mark) ([1]; Table 10, 10 μg/ml): 480 ± 9 ng/mL
GH release, first line of entry (mark P + S) ([1]; Table 10, 10 μg/ml): 373 ± 2 ng/mL
GH release, second line of entry (no mark) ([1]; Table 10, 30 μg/ml): 223 ± 22 ng/mL
GH release, first line of entry (mark P + S) ([1]; Table 10, 30 μg/ml): 176 ± 11 ng/mL
Compound: CCOC(=O)c1cc2ccccc2cc1C(=O)N1CCC(c2ccccc2OC)CC1 [ethyl 3-(4-(2-methoxyphenyl)piperidine-1-carbonyl)-2-naphthoate]

GH release, second line of entry (no mark) ([1]; Table 11, 10 μg/ml): 1149 ± 33 ng/mL
GH release, first line of entry (mark P + S) ([1]; Table 11, 10 μg/ml): 754 ± 32 ng/mL
GH release, second line of entry (no mark) ([1]; Table 11, 30 μg/ml): 886 ± 29 ng/mL
GH release, first line of entry (mark P + S) ([1]; Table 11, 30 μg/ml): 498 ± 26 ng/mL
Compound: COC(=O)c1cc2ccccc2cc1C(=O)Nc1ccc(C)cc1 [methyl 3-(p-tolylcarbamoyl)-2-naphthoate]

GH release, second line of entry (no mark) ([1]; Table 10, 1 μg/ml): 654 ± 18 ng/mL
GH release, first line of entry (mark P + S) ([1]; Table 10, 1 μg/ml): 338 ± 3 ng/mL
GH release, second line of entry (no mark) ([1]; Table 10, 3 μg/ml): 442 ± 4 ng/mL
GH release, first line of entry (mark P + S) ([1]; Table 10, 3 μg/ml): 204 ± 10 ng/mL
GH release, second line of entry (no mark) ([1]; Table 10, 10 μg/ml): 537 ± 28 ng/mL and 648 ± 16 ng/mL
GH release, first line of entry (mark P + S) ([1]; Table 10, 10 μg/ml): 262 ± 4 ng/mL and 136 ± 11 ng/mL
GH release, second line of entry (no mark) ([1]; Table 10, 30 μg/ml): 309 ± 46 ng/mL
GH release, first line of entry (mark P + S) ([1]; Table 10, 30 μg/ml): 118 ± 8 ng/mL
Compound: COc1ccccc1N1CCN(C(=O)c2cc3ccccc3cc2C(=O)N2CCN(c3ccccc3OC)CC2)CC1 [naphthalene-2,3-diylbis((4-(2-methoxyphenyl)piperazin-1-yl)methanone)]

GH release, second line of entry (no mark) ([1]; Table 10, 10 μg/ml): 878 ± 30 ng/mL
GH release, first line of entry (mark P + S) ([1]; Table 10, 10 μg/ml): 777 ± 34 ng/mL
GH release, second line of entry (no mark) ([1]; Table 10, 30 μg/ml): 510 ± 15 ng/mL
GH release, first line of entry (mark P + S) ([1]; Table 10, 30 μg/ml): 499 ± 18 ng/mL
Compound: CC(C)(N)C(=O)N[C@H](COCc1ccccc1)C(=O)N1CCN(c2ccccc2)CC1 [αAibDSer(BZL)-N′-phenyl-N-piperazinamide, (R)-2-amino-N-(3-(benzyloxy)-1-oxo-1-(4-phenylpiperazin-1-yl)propan-2-yl)-2-methylpropanamide]

Unstimulated Basal GH release ([1]; peptide 1 μg/ml): 286 ± 75 ng/mL
Unstimulated Basal GH release ([1]; peptide 3 μg/ml): 177 ± 44 ng/mL
Unstimulated Basal GH release ([1]; peptide 10 μg/ml): 271 ± 38 ng/mL
Unstimulated Basal GH release ([1]; peptide 30 μg/ml): 376 ± 28 ng/mL
Compound: DAla-DcyclohexylAla-Ala-Ala-Phe-DPhe-Nle-NH2

Compound: [dA][d2Nal]AW[dF]K-NH2 [reference compound]
Stimulated Control GH ([2]; Table 2, stimulator DAla-DβNal-Ala-Trp-DPhe-Lys-NH2 alone 0.3 μg, rat): 2253 ± 252 ng/mL and 1412 ± 400 ng/mL
Stimulated Control GH ([2]; Table 2, stimulator DAla-DβNal-Ala-Trp-DPhe-Lys-NH2 alone 1 μg, rat): 3214 ± 276 ng/mL and 3105 ± 429 ng/mL and 2406 ± 288 ng/mL and 2825 ± 134 ng/mL and 3104 ± 429 ng/mL
Stimulated Control GH ([2]; Table 4, Non-Pentobarbital Rats, stimulator DAla-DβNal-Ala-Trp-DPhe-Lys-NH2 alone 10 μg): 72 ± 9 ng/mL
Stimulated Control GH ([2]; Table 4, Pentobarbital Rats, stimulator DAla-DβNal-Ala-Trp-DPhe-Lys-NH2 alone 1 μg): 4950 ± 98 ng/mL
Stimulated Control GH release ([1]; Table 6, stimulator DAla-DβNal-Ala-Trp-DPhe-Lys-NH2 alone 10 ng/ml): 2420 ± 0 ng/mL and 2811 ± 229 ng/mL and 2385 ± 8 ng/mL
Stimulated Control GH release ([1]; Table 9, stimulator DAla-DβNal-Ala-Trp-DPhe-Lys-NH2 alone 1 ng/ml): 1232 ± 34 ng/mL
Stimulated Control GH release ([1]; Table 10, stimulator DAla-DβNal-Ala-Trp-DPhe-Lys-NH2 alone 1 ng/ml): 905 ± 6 ng/mL and 1153 ± 36 ng/mL and 1216 ± 26 ng/mL and 1461 ± 58 ng/mL and 1016 ± 18 ng/mL and 859 ± 4 ng/mL and 1060 ± 24 ng/mL
Stimulated Control GH release ([1]; Table 11, stimulator DAla-DβNal-Ala-Trp-DPhe-Lys-NH2 alone 1 ng/ml): 905 ± 6 ng/mL and 947 ± 11 ng/mL and 947 ± 33 ng/mL and 1016 ± 18 ng/mL

Compound: [dA][d2Nal][dK][dW]FK-NH2
Stimulated GH release (P + S) ([2]; Table 4, Pentobarbital Rats, peptide 30 μg i.v. + stimulator DAla-DβNal-Ala-Trp-DPhe-Lys-NH2 1 μg): 2884 ± 828 ng/mL

Source: patent US8536120B2 (The Administrators of The Tulane Educational Fund, priority 2006, dated 2013)
